Results from PMC2918227 (Bioorganic & medicinal chemistry, 2010).

Tests used:
[1] = Stability of the isolated free base on storage; assay type: physicochemical; conditions: yellow oil, converted to hydrochloride salt for long-term storage
[2] = molecular target: human 5-HT2A receptor (Homo sapiens, UniProt P28223); test: 5HT2A Ke determination in FLIPR assay; assay type: cell-based
human 5-HT2A receptor, sequence (P28223 whole entry): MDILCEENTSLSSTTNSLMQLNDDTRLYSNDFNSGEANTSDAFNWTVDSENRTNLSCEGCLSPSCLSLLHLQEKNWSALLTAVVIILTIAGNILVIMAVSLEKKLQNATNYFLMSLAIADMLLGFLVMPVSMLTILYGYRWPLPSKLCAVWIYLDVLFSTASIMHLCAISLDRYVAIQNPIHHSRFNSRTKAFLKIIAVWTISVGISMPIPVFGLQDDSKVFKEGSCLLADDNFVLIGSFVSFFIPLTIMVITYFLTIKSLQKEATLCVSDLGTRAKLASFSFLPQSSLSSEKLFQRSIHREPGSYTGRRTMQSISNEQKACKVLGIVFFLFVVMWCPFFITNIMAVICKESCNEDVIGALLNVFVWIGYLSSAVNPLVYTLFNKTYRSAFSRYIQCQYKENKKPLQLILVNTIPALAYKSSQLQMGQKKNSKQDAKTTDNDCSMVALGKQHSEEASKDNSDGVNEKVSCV

Row | Structure (SMILES) | stability of the compound [1] | Kb [2] [µM]
1 | COc1cc2c3c(c1OC)-c1cc4c(cc1CC3NCC2)OCO4 (stereo not drawn) [Compound 8a, 1,2-dimethoxy-5,6,6a,7-tetrahydro-4H-benzo[de][1,3]benzodioxolo[5,6-g]quinoline] | unstable | –
2 | COc1cc2c3c(c1OC)-c1cc4c(cc1CC3N(C(C)=O)CC2)OCO4 (stereo not drawn) [Compound 8c, 1,2-dimethoxy-6-acetyl-5,6,6a,7-tetrahydro-4H-benzo[de][1,3]benzodioxolo[5,6-g]quinoline] | – | > 10
3 | COc1cc2c3c(c1OC)-c1cc4c(cc1CC3N(S(C)(=O)=O)CC2)OCO4 (stereo not drawn) [Compound 8d, 1,2-dimethoxy-6-methanesulfonyl-5,6,6a,7-tetrahydro-4H-benzo[de][1,3]benzodioxolo[5,6-g]quinoline] | – | > 10
